Test results from patent US10508120B2, “TYK2 inhibitors and uses thereof” (Nimbus Lakshmi, Inc., priority 2017, dated 2019).
Read-outs that look alike come from different tables or passages of the source.

What was measured:
[1] = molecular target: human TYK2 (JH2domain-pseudokinase) (Homo sapiens (Human), UniProt P29597); assay: TYK2 JH2 Domain Binding Assay (KINOMEscan)
Summary of the method: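 Kds, run in duplicate, came from Hill fits (slope fixed at −1) of an 11-point 3-fold dilution series starting at 30,000 nM. Bead-retained TYK2 JH2 (aa G556–D888)–NFkB DBD fusion, DNA-tagged and expressed in HEK293 cells, was read by qPCR after 1 h room-temperature binding in 0.9% DMSO.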

[2] = molecular target: Tyk2/JAK2 (heterodimeric complex) (Homo sapiens (Human), UniProt P29597); assay: IL-12 Induced pSTAT4 in Human PBMC; type: cell-based; settings: 1.7 ng/mL IL-12
Description: The IL-12 Induced pSTAT4 assay evaluates the inhibition of IL-12 induced STAT4 phophorylation mediated by Tyk2/JAK2 (heterodimeric complex).

JAK2 kinase domain (JH1) = JAK2 kinase domain (JH1) (Homo sapiens (Human), UniProt O60674); assay: JAK2 Radioactive Kinase Assay; type: biochemical; settings: for inhibition at 10 µM: read-out: JAK2 JH1% Inhibition @ 10 μM
Summary of the method: (§1)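 Compounds were tested at a single concentration of 10 μM in a radiometric kinase format against each isolated kinase domain. Activity is reported as percent inhibition at that concentration.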

Tyk2 kinase domain (DH1) = Tyk2 kinase domain (DH1) (Homo sapiens (Human), UniProt P29597); assay: Tyk2 Radioactive Kinase Assay; type: biochemical; settings: for inhibition at 10 µM: read-out: Tyk2 JH1% Inhibition @ 10 μM
Summary of the method: as §1

[3] = molecular target: JAK2/JAK2 homdimeric complex (Homo sapiens (Human), UniProt O60674); assay: GM-CSF Induced pSTAT5 in Human PBMC; type: cell-based; settings: GM-CSF 5 ng/mL for 20 minutes, pSTAT5 by MSD, read-out: PBMC_GMCSF_pSTAT5 IC50
Sequence of JAK2/JAK2 homdimeric complex (O60674 whole entry): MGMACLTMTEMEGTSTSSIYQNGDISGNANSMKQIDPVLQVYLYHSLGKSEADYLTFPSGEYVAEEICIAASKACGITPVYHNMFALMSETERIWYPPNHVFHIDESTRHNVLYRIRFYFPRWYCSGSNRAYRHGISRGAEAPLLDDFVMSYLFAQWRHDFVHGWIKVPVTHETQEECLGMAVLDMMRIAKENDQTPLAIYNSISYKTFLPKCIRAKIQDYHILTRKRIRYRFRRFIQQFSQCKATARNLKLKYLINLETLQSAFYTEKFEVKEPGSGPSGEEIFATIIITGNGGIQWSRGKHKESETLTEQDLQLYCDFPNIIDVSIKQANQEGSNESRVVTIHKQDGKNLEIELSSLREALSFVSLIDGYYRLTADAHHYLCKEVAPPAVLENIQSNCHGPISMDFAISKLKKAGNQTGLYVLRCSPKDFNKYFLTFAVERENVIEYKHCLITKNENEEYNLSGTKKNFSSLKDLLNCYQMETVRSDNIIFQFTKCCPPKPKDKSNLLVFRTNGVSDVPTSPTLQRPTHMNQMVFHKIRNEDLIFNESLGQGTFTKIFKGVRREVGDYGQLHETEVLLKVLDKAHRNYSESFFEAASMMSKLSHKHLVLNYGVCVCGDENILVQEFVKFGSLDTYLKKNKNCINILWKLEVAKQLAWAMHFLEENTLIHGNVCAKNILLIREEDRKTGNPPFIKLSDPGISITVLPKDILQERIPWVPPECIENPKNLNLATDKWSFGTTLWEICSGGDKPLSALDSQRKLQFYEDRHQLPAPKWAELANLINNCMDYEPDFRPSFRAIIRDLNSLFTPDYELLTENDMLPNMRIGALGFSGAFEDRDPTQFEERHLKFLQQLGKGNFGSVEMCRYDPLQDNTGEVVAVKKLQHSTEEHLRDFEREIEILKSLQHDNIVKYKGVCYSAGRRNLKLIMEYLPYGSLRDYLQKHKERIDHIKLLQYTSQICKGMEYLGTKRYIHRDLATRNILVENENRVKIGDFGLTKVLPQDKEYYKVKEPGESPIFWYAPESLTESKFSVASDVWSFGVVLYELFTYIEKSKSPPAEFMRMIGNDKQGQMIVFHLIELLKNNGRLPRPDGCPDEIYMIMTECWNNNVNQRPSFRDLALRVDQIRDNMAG
Sequence of JAK2/JAK2 homdimeric complex (P32927 17-897 partner): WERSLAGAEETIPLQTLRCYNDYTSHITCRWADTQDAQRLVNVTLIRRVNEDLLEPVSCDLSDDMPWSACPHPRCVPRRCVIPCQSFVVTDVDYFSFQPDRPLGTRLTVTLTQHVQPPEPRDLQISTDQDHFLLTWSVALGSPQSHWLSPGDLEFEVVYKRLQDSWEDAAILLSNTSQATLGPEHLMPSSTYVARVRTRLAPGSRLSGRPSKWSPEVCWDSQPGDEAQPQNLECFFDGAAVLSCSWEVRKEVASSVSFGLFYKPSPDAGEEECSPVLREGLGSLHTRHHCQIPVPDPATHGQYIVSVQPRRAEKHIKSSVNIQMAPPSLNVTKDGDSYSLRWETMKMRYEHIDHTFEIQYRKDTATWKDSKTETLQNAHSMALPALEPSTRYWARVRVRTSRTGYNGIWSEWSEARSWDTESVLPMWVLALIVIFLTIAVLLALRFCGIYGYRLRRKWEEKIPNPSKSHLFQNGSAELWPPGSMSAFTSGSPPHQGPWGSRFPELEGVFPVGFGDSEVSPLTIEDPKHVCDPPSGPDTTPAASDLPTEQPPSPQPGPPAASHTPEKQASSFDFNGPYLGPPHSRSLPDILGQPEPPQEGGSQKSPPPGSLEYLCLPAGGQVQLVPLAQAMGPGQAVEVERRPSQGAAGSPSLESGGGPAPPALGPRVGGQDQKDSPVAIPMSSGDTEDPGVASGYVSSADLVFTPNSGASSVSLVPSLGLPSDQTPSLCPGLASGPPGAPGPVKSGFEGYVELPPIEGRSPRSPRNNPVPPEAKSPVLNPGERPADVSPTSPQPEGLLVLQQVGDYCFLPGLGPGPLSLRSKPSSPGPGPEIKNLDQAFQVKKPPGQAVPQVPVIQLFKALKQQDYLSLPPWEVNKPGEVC

Sequence of JAK2 kinase domain (JH1) (O60674 849-1124): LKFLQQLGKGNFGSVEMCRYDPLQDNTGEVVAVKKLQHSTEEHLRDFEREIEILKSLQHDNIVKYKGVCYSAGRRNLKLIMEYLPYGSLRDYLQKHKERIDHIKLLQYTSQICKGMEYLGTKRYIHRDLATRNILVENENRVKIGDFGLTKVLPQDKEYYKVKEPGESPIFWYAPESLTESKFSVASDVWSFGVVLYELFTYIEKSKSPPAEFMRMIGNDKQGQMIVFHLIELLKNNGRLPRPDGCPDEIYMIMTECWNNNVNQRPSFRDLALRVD
Sequence of Tyk2/JAK2 (heterodimeric complex) (P29597 whole entry, other chains not shown): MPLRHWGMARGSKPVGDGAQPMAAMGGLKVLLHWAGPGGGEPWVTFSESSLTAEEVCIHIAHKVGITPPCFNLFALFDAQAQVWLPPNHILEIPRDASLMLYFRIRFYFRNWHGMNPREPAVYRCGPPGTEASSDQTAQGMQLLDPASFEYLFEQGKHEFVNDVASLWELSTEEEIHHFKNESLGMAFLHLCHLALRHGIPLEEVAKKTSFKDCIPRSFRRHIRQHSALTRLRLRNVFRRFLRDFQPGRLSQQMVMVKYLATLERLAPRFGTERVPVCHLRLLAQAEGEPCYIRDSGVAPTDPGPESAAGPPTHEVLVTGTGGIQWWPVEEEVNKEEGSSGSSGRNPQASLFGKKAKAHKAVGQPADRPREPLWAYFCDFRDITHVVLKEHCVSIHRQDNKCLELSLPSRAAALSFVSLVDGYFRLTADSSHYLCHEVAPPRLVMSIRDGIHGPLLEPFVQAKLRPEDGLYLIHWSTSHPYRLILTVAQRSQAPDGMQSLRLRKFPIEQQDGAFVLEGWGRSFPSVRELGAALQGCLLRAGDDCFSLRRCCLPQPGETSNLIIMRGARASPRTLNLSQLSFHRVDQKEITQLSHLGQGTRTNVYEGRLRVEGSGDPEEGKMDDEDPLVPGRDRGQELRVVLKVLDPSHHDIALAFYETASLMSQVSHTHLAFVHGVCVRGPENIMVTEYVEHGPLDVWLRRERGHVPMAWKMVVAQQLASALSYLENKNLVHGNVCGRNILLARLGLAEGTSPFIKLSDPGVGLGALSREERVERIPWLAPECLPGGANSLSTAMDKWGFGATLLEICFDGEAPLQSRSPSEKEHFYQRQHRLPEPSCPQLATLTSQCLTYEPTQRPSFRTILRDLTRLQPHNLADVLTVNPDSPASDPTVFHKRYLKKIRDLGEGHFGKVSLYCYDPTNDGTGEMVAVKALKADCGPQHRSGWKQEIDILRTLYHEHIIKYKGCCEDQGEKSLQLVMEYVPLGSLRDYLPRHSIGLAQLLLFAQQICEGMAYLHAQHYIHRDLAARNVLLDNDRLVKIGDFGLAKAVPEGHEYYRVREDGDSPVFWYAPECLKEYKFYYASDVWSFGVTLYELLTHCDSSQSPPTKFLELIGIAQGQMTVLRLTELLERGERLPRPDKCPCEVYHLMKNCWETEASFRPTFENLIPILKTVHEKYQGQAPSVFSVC
Sequence of human TYK2 (JH2domain-pseudokinase) (P29597 556-888): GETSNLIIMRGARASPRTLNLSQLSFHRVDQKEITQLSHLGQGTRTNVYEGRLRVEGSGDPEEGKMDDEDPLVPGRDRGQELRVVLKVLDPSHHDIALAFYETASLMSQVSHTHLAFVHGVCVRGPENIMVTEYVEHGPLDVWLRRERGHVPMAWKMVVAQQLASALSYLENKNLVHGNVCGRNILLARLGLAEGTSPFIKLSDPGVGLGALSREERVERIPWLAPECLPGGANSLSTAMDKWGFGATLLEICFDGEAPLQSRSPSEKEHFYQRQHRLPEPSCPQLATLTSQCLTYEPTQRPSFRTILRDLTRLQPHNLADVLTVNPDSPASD
Sequence of Tyk2 kinase domain (DH1) (P29597 897-1176): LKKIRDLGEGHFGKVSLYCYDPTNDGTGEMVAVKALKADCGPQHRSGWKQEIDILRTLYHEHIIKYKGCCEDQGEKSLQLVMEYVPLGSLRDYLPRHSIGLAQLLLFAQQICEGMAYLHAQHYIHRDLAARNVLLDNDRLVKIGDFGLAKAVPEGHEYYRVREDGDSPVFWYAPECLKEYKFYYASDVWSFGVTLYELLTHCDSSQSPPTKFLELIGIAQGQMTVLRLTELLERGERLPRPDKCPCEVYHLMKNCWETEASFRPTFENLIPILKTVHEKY

| SMILES | Kd [1] | IC50 [2] | inhibition at 10 µM (JAK2 kinase domain (JH1); compound at 10 μM, ATP 10 μM) | inhibition at 10 µM (Tyk2 kinase domain (DH1); compound at 10 μM, ATP 10 μM) | IC50 [3] | inhibition at 10 µM (JAK2 kinase domain (JH1); 10 μM compound, 10 μM ATP) | inhibition at 10 µM (Tyk2 kinase domain (DH1); 10 μM compound, 10 μM ATP) | JAK2 JH1% Inhibition @ 10 μM (JAK2 kinase domain (JH1); compound at 10 μM, ATP 10 μM) | Tyk2 JH1% Inhibition @ 10 μM (Tyk2 kinase domain (DH1); compound at 10 μM, ATP 10 μM) |
| --- | --- | --- | --- | --- | --- | --- | --- | --- | --- |
| CNc1cc(Nc2cccn(-c3ccn(C)n3)c2=O)nc2c(C(=O)NC3CCC3)cnn12 [I-139] | < 0.2 nM | < 100 nM | < 50% | < 50% | > 50000 nM |  |  |  |  |
| CNc1cc(Nc2cc(F)cn(-c3cc(C)n(C)n3)c2=O)nc2c(C(=O)N[C@H]3C[C@H]3F)cnn12 [I-385] | < 0.2 nM | < 100 nM | < 50% | < 50% | > 2500 nM |  |  |  |  |
| CNc1cc(Nc2cc(Cl)cn(-c3cnc(C(=O)N(C)C)cn3)c2=O)nc2c(C(=O)NC3CC3)cnn12 [I-318] | < 0.2 nM | < 100 nM | < 50% | < 50% | > 2500 nM |  |  |  |  |
| CNc1cc(Nc2cc(F)cnc2OC)nc2c(C(=O)NCC(C)(C)CO)cnn12 [I-283] | < 0.2 nM | < 100 nM | < 50% | < 50% | > 50000 nM |  |  |  |  |
| CNc1cc(Nc2cc(F)cn(-c3ccccn3)c2=O)nc2c(C(=O)N[C@H]3C[C@H]3F)cnn12 [I-194] | < 0.2 nM | < 100 nM | < 50% | < 50% | > 12500 nM |  |  |  |  |
| CNc1cc(-c2cn(C(C)C)c3ncccc23)nc2c(C(=O)NC3CC3)cnn12 [I-223] | < 0.2 nM | < 100 nM | < 50% | < 50% | > 12500 nM |  |  |  |  |
| CNc1cc(Nc2cc(F)cnc2OCCOC)nc2c(C(=O)N[C@H]3C[C@H]3F)cnn12 [I-285] | < 0.2 nM | < 100 nM | < 50% | < 50% | > 50000 nM |  |  |  |  |
| CNc1cc(Nc2cccnc2OC)nc2c(C(=O)N[C@H]3CC[C@@H]3O)cnn12 [I-395] | < 0.2 nM | < 100 nM |  |  | > 12500 nM |  |  | A (percent inhibition at 10 μM lower than 50) | A (percent inhibition at 10 μM lower than 50) |
| CNc1cc(Nc2cc(F)cn(-c3ccccn3)c2=O)nc2c(C(=O)NC3CCC3)cnn12 [I-193] | 0.2 to 1 nM | < 100 nM | < 50% | < 50% | > 12500 nM |  |  |  |  |
| CNc1cc(Nc2cccn(C[C@@H]3CCCCO3)c2=O)nc2c(C(=O)N[C@@H]3C[C@@H]3F)cnn12 [I-428] | < 0.2 nM | < 100 nM | < 50% | < 50% | > 50000 nM |  |  |  |  |
| CNc1cc(Nc2cccn(-c3cnn(C)c3)c2=O)nc2c(C(=O)N[C@H]3C[C@H]3F)cnn12 [I-296] | < 0.2 nM | < 100 nM | < 50% | < 50% | > 50000 nM |  |  |  |  |
| [2H]C([2H])([2H])Oc1ncccc1Nc1cc(NC)n2ncc(C(=O)N[C@H]3CC[C@@H]3O)c2n1 [I-411] | < 0.2 nM | < 100 nM |  |  | > 50000 nM |  |  | A (percent inhibition at 10 μM lower than 50) | A (percent inhibition at 10 μM lower than 50) |
| CNc1cc(Nc2cc(C)cc(F)c2)nc2c(C(=O)NC3CC3)cnn12 [I-6] | < 0.2 nM | < 100 nM | < 50% | < 50% | > 50000 nM |  |  |  |  |
| CNc1cc(Nc2cccn(-c3cnc(C(=O)N(C)C)cn3)c2=O)nc2c(C(=O)NC3CC3)cnn12 [I-127, N-cyclopropyl-5-((1-(5-(dimethylcarbamoyl)pyrazin-2-yl)-2-oxo-1,2-dihydropyridin-3-yl)amino)-7-(methylamino)pyrazolo[1,5-a]pyrimidine-3-carboxamide] | < 0.2 nM | < 100 nM | < 50% | < 50% | > 12500 nM |  |  |  |  |
| CNc1cc(Nc2cccn(-c3cnn(CC4CCOCC4)c3)c2=O)nc2c(C(=O)N[C@H]3C[C@H]3F)cnn12 [I-407] | < 0.2 nM | < 100 nM | < 50% | < 50% | > 12500 nM |  |  |  |  |
| CNc1cc(Nc2cccn(-c3ccc(OC)cn3)c2=O)nc2c(C(=O)N[C@H]3C[C@H]3F)cnn12 [I-265] | < 0.2 nM | < 100 nM | < 50% | < 50% | > 12500 nM |  |  |  |  |

Second part, led by results:

| Kd [1] | IC50 [2] | inhibition at 10 µM (JAK2 kinase domain (JH1); compound at 10 μM, ATP 10 μM) | inhibition at 10 µM (Tyk2 kinase domain (DH1); compound at 10 μM, ATP 10 μM) | IC50 [3] | inhibition at 10 µM (JAK2 kinase domain (JH1); 10 μM compound, 10 μM ATP) | inhibition at 10 µM (Tyk2 kinase domain (DH1); 10 μM compound, 10 μM ATP) | SMILES | JAK2 JH1% Inhibition @ 10 μM (JAK2 kinase domain (JH1); compound at 10 μM, ATP 10 μM) | Tyk2 JH1% Inhibition @ 10 μM (Tyk2 kinase domain (DH1); compound at 10 μM, ATP 10 μM) |
| --- | --- | --- | --- | --- | --- | --- | --- | --- | --- |
| < 0.2 nM | < 100 nM | < 50% | < 50% | > 50000 nM |  |  | CNc1cc(Nc2cccn([C@H]3CC[C@H](OC)CC3)c2=O)nc2c(C(=O)N[C@@H]3CC[C@H]3O)cnn12 [I-635] |  |  |
| < 0.2 nM | < 100 nM |  |  | > 50000 nM | < 50% | < 50% | CNc1cc(Nc2cccn([C@@H]3CCC[C@H](OC)C3)c2=O)nc2c(C(=O)NCC(C)(C)CO)cnn12 [I-951] |  |  |
| < 0.2 nM | < 100 nM | < 50% | < 50% | > 2500 nM |  |  | CNc1cc(Nc2cccn([C@H]3CC[C@H](OC)CC3)c2=O)nc2c(C(=O)NCC(C)(C)CO)cnn12 [I-544] |  |  |
| < 0.2 nM | < 100 nM |  |  | > 50000 nM | < 50% | < 50% | CNc1cc(Nc2cccn([C@@H]3CCC[C@H](OC)C3)c2=O)nc2c(C(=O)N[C@@H]3C[C@@H]3F)cnn12 [I-840] |  |  |
| < 0.2 nM | 100 to 500 nM | < 50% | < 50% | > 50000 nM |  |  | CNc1cc(Nc2cccnc2OC2CC2)nc2c(C(=O)NCC(C)CO)cnn12 (stereo not shown) [I-435] |  |  |
| < 0.2 nM | < 100 nM |  |  | > 12500 nM | < 50% | < 50% | CNc1cc(Nc2cc(Cl)cn([C@H]3CCCN(C)C3)c2=O)nc2c(C(=O)NC3CC3)cnn12 [I-820] |  |  |
| < 0.2 nM | < 100 nM | < 50% | < 50% | > 12500 nM |  |  | CNc1cc(Nc2cccc3ocnc23)nc2c(C(=O)N[C@H]3C[C@H]3F)cnn12 [I-592] |  |  |
| < 0.2 nM | 100 to 500 nM | < 50% | < 50% | > 50000 nM |  |  | CNc1cc(Nc2cccnc2OC)nc2c(C(=O)NO)cnn12 [I-710, N-hydroxy-5-((2-methoxypyridin-3-yl)amino)-7-(methylamino)pyrazolo[1,5-a]pyrimidine-3-carboxamide] |  |  |
| < 0.2 nM | < 100 nM | < 50% | < 50% | > 2500 nM |  |  | CNc1cc(Nc2cccn(C3CC4(COC4)C3)c2=O)nc2c(C(=O)N[C@@H]3C[C@@H]3F)cnn12 [I-551, N-((1R,2S)-2-fluorocyclopropyl)-7-(methylamino)-5-((2-oxo-1-(2-oxaspiro[3.3]heptan-6-yl)-1,2-dihydropyridin-3-yl)amino)pyrazolo[1,5-a]pyrimidine-3-carboxamide] |  |  |
| < 0.2 nM | < 100 nM | < 50% | < 50% | > 50000 nM |  |  | CNc1cc(Nc2cc(Cl)cn(C3CCCOC3)c2=O)nc2c(C(=O)NCC(C)(C)CO)cnn12 (stereo not shown) [I-694] |  |  |
